Read-outs that look alike come from different tables or passages of the source.
Key:
[1] = Pharmacokinetic analysis of CBN and metabolites in rat plasma and brain (LC-MS/MS); type: in vivo; details: for Kp: brain and plasma, 10 mg/kg, read-out: Brain/plasma ratio
Description: Rats received 10 mg/kg CBN IP at approximately ZT13. Rats were then anesthetized with isoflurane at selected ZT points (13, 13.5, 14, 15, 17, 19, and 21) and blood was collected by terminal cardiac puncture. Brains were harvested, snap frozen on dry ice and plasma was isolated via centrifugation at 9000 × g for 10 min at 4 °C. All tissues were stored at −80 °C until analysis. CBN and metabolite concentrations in plasma and brain samples were assayed by liquid chromatography-tandem mass spectrometry (LC–MS/MS) using a using a Shimadzu Nexera LC-30AD UHPLC system coupled to a Shimadzu SPD-20AV photodiode array detector and a Shimadzu LC–MS-8040 triple-quadrupole mass spectrometer, equipped with an electrospray ionization (ESI) source (Shimadzu Corp.; Kyoto, Japan) as described previously.
LC-MS/MS. Plasma samples (50 µL) were spiked with internal standard (12.5 µg/mL d3-THC, 5 µL) and protein precipitation was achieved by vortex-mixing with a 3x volume of ice-cold acetonitrile. The organic layer was isolated by centrifugation (6000 g for 10 min, 4 °C) and evaporated to dryness using N2 gas. Samples were reconstituted in acetonitrile (90 µL) and 0.1% ammonium formate in water (300 µL) for supported-liquid extraction (SLE) using dichloromethane and methyl tert-butyl ether Biotage Isolute SLE+ columns (Uppsala, Sweden) as previously described. Brain samples were prepared as described for plasma samples with minor modifications. Briefly, each half brain was homogenised in methanol: water (2:1, 10x, w/v) and spiked with d3-THC as an internal standard. Homogenates were centrifuged (20,000 g for 30 min, 4 °C). Supernatants were then extracted and prepared as described above.
Quantification of CBN, 11-OH-CBN and 11-COOH-CBN in plasma and brain samples was performed by comparing experimental samples to eight-point standard curves prepared with known amounts of cannabinoid. Plasma and brain concentrations at each time point were averaged and pharmacokinetic parameters were calculated by noncompartmental analysis. Elimination rate constants were determined by linear regression of the terminal component of the concentration-time curve using GraphPad Prism 8.2 (La Jolla, USA). The log-linear trapezoidal method was used to calculate the area under concentration-time curve using equations described previously.

human CB2 receptors = target: T1, human CB2 receptors (Homo sapiens, UniProt P34972); assay: Membrane potential (GIRK) assay in AtT20 cells, human CB2; type: cell-based; details: at 30 µM; normalized to 1 µM CP 55,940
T1 construct: expressed in transfected cells; host or cells: mouse AtT20 FlpIn cells

human CB1 receptors = human CB1 receptors (Homo sapiens, UniProt P21554); assay: cell-based; type: cell-based; parameters: expressed in transfected cells; host or cells: mouse AtT20 FlpIn cells
rat CB1 receptors = test system: rat CB1 receptors; parameters: method as in PMID 9379442; details: adenylyl cyclase inhibition; higher potency than CBN; efficacy not reported; cited from earlier work
male Long-Evans rats = assay: Acute polysomnography (wireless EEG/EMG telemetry) in rats; details: for NREM delta power / REM theta power: EEG power spectra; for NREM delta power: overall effect; for NREM delta power / REM theta power / body temperature / locomotor activity counts: acute IP; for NREM delta power / REM theta power / total sleep time / % NREM sleep / % REM sleep / % active wake / % quiet wake / NREM sleep onset latency / REM bout duration / REM bout number / REM sleep onset latency / cumulative total sleep time / mean duration of NREM bouts per hour / number of NREM bouts per hour / total wake time / body temperature / locomotor activity counts: zolpidem 10 mg/kg; for total sleep time: acute IP at ZT13 (dark phase) vs vehicle, n = 8; for body temperature: subcutaneous; for body temperature / locomotor activity counts: telemetry
mice = details: cited from earlier work; for NREM: mice
rats = test system: rats; parameters: method as in PMID 28934522, PMID 37507813; details: cited from earlier work
rabbits = test system: rabbits; parameters: method as in PMID 4355439; details: cited from earlier work
[2] = parameters: method as in PMID 4337346; details: early human study; cited from earlier work
[3] = ip, rat plasma after CBN 10 mg/kg, post-dose, read-out: plasma Tmax (converted)
[4] = rat brain after CBN 10 mg/kg IP, analyte as labelled
[5] = rat brain after CBN 10 mg/kg IP, analyte as labelled, n = 4
[6] = rat plasma after CBN 10 mg/kg IP, analyte as labelled
[7] = rat plasma after CBN 10 mg/kg IP, analyte as labelled, n = 4
[8] = rat, ip, rat, after CBN 10 mg/kg IP, analyte as labelled
[9] = CBN 10, 30, 100 mg/kg, 11-OH-CBN 1, 3, 10 mg/kg
[10] = acute IP at ZT13 vs vehicle, CBN 10, 30, 100 mg/kg, 11-OH-CBN 1, 3, 10 mg/kg

human CB1 receptors, sequence (P21554 whole entry): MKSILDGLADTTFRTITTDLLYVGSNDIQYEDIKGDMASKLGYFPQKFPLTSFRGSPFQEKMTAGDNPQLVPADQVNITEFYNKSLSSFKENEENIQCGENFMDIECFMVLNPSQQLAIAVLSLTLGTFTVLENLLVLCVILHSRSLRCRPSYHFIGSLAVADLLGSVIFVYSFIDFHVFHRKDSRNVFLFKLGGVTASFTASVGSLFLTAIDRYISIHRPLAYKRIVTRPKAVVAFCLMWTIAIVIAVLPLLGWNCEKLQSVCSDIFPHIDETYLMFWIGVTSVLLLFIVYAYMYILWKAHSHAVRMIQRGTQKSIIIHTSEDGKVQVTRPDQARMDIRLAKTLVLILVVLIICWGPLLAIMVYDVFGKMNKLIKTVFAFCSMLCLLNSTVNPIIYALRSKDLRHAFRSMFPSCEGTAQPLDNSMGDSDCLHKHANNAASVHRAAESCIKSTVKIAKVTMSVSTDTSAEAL
T1 sequence (P34972 whole entry): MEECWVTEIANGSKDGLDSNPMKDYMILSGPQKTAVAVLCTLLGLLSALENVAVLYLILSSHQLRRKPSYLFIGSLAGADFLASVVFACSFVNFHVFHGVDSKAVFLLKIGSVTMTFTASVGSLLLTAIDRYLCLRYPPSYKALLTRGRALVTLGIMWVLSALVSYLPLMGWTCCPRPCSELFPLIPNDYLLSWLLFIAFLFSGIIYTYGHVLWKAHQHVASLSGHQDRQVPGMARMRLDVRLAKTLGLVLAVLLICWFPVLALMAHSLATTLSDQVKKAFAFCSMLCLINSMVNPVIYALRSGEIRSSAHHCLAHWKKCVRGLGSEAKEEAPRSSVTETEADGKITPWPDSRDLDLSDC

CCCCCc1cc(O)c2c(c1)OC(C)(C)c1ccc(C(=O)O)cc1-2 [11-COOH-CBN, 11-carboxy-cannabinol]
half-life ([1]; ip, rat brain after CBN 10 mg/kg, read-out: brain T1/2 (converted)): 209 min
Tmax [1, 3]: 1 h
half-life ([1]; ip, rat plasma after CBN 10 mg/kg, read-out: t1/2 plasma (converted)): 271 min
Brain AUC∞ [1, 4]: 137 pg hour/mg brain
Brain t½ [1, 4]: 3.48 h
Brain Cmax [1, 5]: 28 ± 5 pg/mg brain
Tmax ([1]; rat brain after CBN 10 mg/kg IP, analyte as labelled, read-out: Brain tmax): 2 h
Plasma AUC∞ [1, 6]: 1181 ng·h/mL
Plasma t½ [1, 6]: 4.52 h
Cmax [1, 7]: 169 ± 38 ng/mL
Kp [1, 8]: 0.12
activity at CB2 (human CB2 receptors): 41 ± 2%
response at CB1 (human CB1 receptors; 30 µM (highest concentration tested), normalized to 1 µM CP 55,940): 43 ± 7%
activity at CB1 receptors (in words) (human CB1 receptors; membrane potential assay): minimal activity

CCCCCc1cc(O)c2c(c1)OC(C)(C)c1ccc(CO)cc1-2 [11-OH-CBN, 11-hydroxy-cannabinol]
Tmax ([1]; ip, rat brain after CBN 10 mg/kg, read-out: brain Tmax): 2 h
Tmax [1, 3]: 1 h
half-life ([1]; ip, rat, after CBN 10 mg/kg, similar in plasma and brain, read-out: half-life in plasma and brain (converted)): ~120 min
Brain AUC∞ [1, 4]: 1539 pg hour/mg brain
Brain Cmax [1, 5]: 419 ± 37 pg/mg brain
half-life ([1]; rat brain after CBN 10 mg/kg IP, analyte as labelled, read-out: Brain t½ (converted)): 125 min
Brain Cmax ([1]; rat brain following systemic administration of CBN): 1.3 µM
Plasma AUC∞ [1, 6]: 493 ng·h/mL
Cmax [1, 7]: 170 ± 18 ng/mL
half-life ([1]; rat plasma after CBN 10 mg/kg IP, analyte as labelled, read-out: Plasma t½ (converted)): 131 min
Brain/plasma ratio ([1]; rat, after CBN 10 mg/kg IP, analyte as labelled): ~3
Kp [1, 8]: 3.12
activity at CB2 (human CB2 receptors): 50 ± 6%
potency at rat CB1 receptors (rat CB1 receptors): low nM range
NREM delta power (male Long-Evans rats; [9]): significantly increased
REM theta power (male Long-Evans rats; [9]): significantly increased
delayed onset of action on % NREM sleep, time post-dosing (male Long-Evans rats; acute IP at ZT13): 3 to 4 h
total sleep time (male Long-Evans rats; [9]): did not significantly increase
cumulative NREM time (male Long-Evans rats; [10]): biphasic effect
cumulative REM time (male Long-Evans rats; [10]): suppressed I cumulative REM at the highest dose
% NREM sleep (male Long-Evans rats; [10]): increased
% REM sleep (male Long-Evans rats; [10]): biphasically affected
% active wake (male Long-Evans rats; [10]): decreased
% quiet wake (male Long-Evans rats; [10]): decreased
NREM sleep onset latency (male Long-Evans rats; [10]): increased
REM bout duration (male Long-Evans rats; [10]): did not affect
REM bout number (male Long-Evans rats; [10]): affected
REM sleep onset latency (male Long-Evans rats; [10]): increased
cumulative total sleep time (male Long-Evans rats; [10]): biphasically influenced
mean duration of NREM bouts per hour (male Long-Evans rats; [10]): significantly decreased
number of NREM bouts per hour (male Long-Evans rats; [10]): increased
total wake time (male Long-Evans rats; [10]): did not significantly reduce
body temperature (male Long-Evans rats; [9]): decreased
locomotor activity counts (male Long-Evans rats; [9]): biphasic effect
EC50 (human CB1 receptors; CB1, membrane potential assay, AtT20 cells, read-out: pEC50 (converted)): 1000 nM
Emax (human CB1 receptors; CB1, normalized to 1 µM CP 55,940, AtT20 cells, read-out: maximal response (Emax)): 75 ± 3%
activity at CB1 receptors (in words) (human CB1 receptors; membrane potential assay): modestly potent partial agonist

O=S(=O)(F)CCCCCc1ccc(O)cc1 [AM3506]
REM (mice): suppressed
NREM (mice): increased

CCCCCCC(C)(C)c1ccc([C@H]2CCC[C@@H](O)C2)c(O)c1 [CP 47,497]
NREM (mice): increased

O=C(Oc1ccc([N+](=O)[O-])cc1)N1CCC(C(O)(c2ccc3c(c2)OCO3)c2ccc3c(c2)OCO3)CC1 [JZL184]
REM (mice): suppressed
NREM (mice): increased

Cc1ccc(-c2nc3ccc(C)cn3c2CC(=O)N(C)C)cc1 [zolpidem, reference compound]
NREM delta power at specific time points (male Long-Evans rats; CBN 30 mg/kg and 100 mg/kg at ZT17 and 18, zolpidem 10 mg/kg at ZT13 and 14): increase
NREM delta power (male Long-Evans rats; [9]): Neither CBN nor zolpidem had robust effects
REM theta power (male Long-Evans rats; [9]): increased
total sleep time (male Long-Evans rats; [9]): increased
% NREM sleep (male Long-Evans rats; [10]): increased
% REM sleep (male Long-Evans rats; [10]): did not affect
% active wake (male Long-Evans rats; [10]): decreased
% quiet wake (male Long-Evans rats; [10]): did not affect
NREM sleep onset latency (male Long-Evans rats; [10]): decreased
REM bout duration (male Long-Evans rats; [10]): did not affect
REM bout number (male Long-Evans rats; [10]): did not affect
REM sleep onset latency (male Long-Evans rats; [10]): did not affect
cumulative total sleep time (male Long-Evans rats; [10]): increased
mean duration of NREM bouts per hour (male Long-Evans rats; [10]): increased
number of NREM bouts per hour (male Long-Evans rats; [10]): unaffected
total wake time (male Long-Evans rats; [10]): decreased
body temperature (male Long-Evans rats; [9]): did not robustly effect
locomotor activity counts (male Long-Evans rats; [9]): decreased

CCCCCc1cc(O)c2c(c1)OC(C)(C)[C@@H]1CCC(C)=C[C@@H]21 [Δ^9-THC, Δ^9-tetrahydrocannabinol]
REM (rats): suppressed
NREM and REM sleep (rabbits): early-phase NREM and REM suppression, followed by a later phase increase in NREM sleep
NREM and REM sleep [2]: tended to increase NREM but suppress REM sleep

From PMC11736144, “A sleepy cannabis constituent: cannabinol and its active metabolite influence sleep architecture in rats” (Neuropsychopharmacology, 2024)
